From PMC5577376 (Nature chemical biology, 2017)
“Also recorded” adds a separate entry of the source. Blank lines part the entries; values can stand above or below the compound they belong to.

Legend:
DCN2 = DCN2 (Homo sapiens, UniProt Q6PH85); assay: Pulse-chase neddylation assay with DCN2; assay type: biochemical; conditions: 10 μM
DCN4 = biological target: T1, DCN4 (Homo sapiens, UniProt Q92564); assay: Pulse-chase neddylation assay with DCN4; assay type: biochemical
T1 sequence (Q92564 101-287 limits assumed): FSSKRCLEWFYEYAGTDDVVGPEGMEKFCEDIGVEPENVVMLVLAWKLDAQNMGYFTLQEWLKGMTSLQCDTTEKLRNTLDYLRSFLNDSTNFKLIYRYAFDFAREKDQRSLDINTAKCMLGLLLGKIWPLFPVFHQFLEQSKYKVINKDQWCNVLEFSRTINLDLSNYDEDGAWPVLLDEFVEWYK

[1] = test system: N-acetyl-UBE2M interactions in 293T cells; assay: AP-MS TMT interaction proteomics of UBE2M; assay type: cell-based, human
DCN3 = biological target: T2, DCN3 (Homo sapiens, UniProt Q8IWE4); assay: Pulse-chase neddylation assay with DCN3; assay type: biochemical
T2 sequence (Q8IWE4 86-278 limits assumed): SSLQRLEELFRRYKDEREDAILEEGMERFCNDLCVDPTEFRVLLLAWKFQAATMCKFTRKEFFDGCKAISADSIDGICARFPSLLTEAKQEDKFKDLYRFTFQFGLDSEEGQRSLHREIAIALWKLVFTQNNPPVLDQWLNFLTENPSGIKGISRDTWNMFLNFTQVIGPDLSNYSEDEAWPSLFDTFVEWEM

[2] = biological target: DCN1-dependent neddylation from AcUBE2M to CUL2CTD-RBX1 (Homo sapiens, UniProt Q96GG9); assay type: biochemical
DCN5 = biological target: T3, DCN5 (Homo sapiens, UniProt Q9BTE7); assay: Pulse-chase neddylation assay with DCN5; assay type: biochemical
T3 sequence (Q9BTE7 46-232 limits assumed): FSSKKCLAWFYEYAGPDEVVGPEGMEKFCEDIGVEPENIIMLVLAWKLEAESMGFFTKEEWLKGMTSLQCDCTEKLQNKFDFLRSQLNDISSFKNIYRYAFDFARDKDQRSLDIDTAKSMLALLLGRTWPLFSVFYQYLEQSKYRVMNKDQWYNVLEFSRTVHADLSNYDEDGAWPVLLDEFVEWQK

[3] = test system: levels of CRL substrates in HCC95 cells; assay: Immunoblot of cullin-RING ligase substrates, HCC95; assay type: cell-based, human
[4] = test system: cullin neddylation in HCC95 cells; assay: Cullin neddylation immunoblot, HCC95; assay type: cell-based, human; conditions: for Effect on levels of neddylated cullins: HCC95, 10 μM dosed at 0 and 24 hours, harvested at 48 hours
[5] = test system: anchorage independent growth of HCC95 cells; assay: Soft agar colony formation assay; assay type: cell-based, human; conditions: 10 μM
[6] = biological target: DCN1 (PONY domain) binding to N-terminally acetylated UBE2M peptide (Homo sapiens, UniProt Q96GG9)
DCN2 PONY domain = DCN2 PONY domain (Homo sapiens, UniProt Q6PH85); assay: Covalent adduct formation by TOF mass spectrometry, DCN2; assay type: binding; conditions: 30 μM PONY domain, 60 μM compound, overnight
C115A DCN1, C115G DCN1 = C115A DCN1, C115G DCN1 (Homo sapiens, UniProt Q96GG9, C115A); assay: Covalent adduct formation by TOF mass spectrometry, DCN1 Cys115 mutants; assay type: binding
DCN3 PONY domain = biological target: T4, DCN3 PONY domain (Homo sapiens, UniProt Q8IWE4); assay: Covalent adduct formation by TOF mass spectrometry, DCN3; assay type: binding; conditions: 30 μM PONY domain, 60 μM compound, overnight
T4 sequence (Q8IWE4 86-278 limits assumed): T2 sequence (Q8IWE4 86-278 limits assumed)

DCN4 PONY domain = biological target: T5, DCN4 PONY domain (Homo sapiens, UniProt Q92564); assay: Covalent adduct formation by TOF mass spectrometry, DCN4; assay type: binding; conditions: 30 μM PONY domain, 60 μM compound, overnight
T5 sequence (Q92564 101-287 limits assumed): T1 sequence (Q92564 101-287 limits assumed)

DCN1 = DCN1 (Homo sapiens, UniProt Q96GG9); assay: Covalent adduct formation by LC-TOF mass spectrometry, DCN1; assay type: binding; conditions: 30 μM PONY domain, 60 μM compound, overnight / 24-hour incubation
DCN5 PONY domain = biological target: T6, DCN5 PONY domain (Homo sapiens, UniProt Q9BTE7); assay: Covalent adduct formation by TOF mass spectrometry, DCN5; assay type: binding; conditions: 30 μM PONY domain, 60 μM compound, overnight
T6 sequence (Q9BTE7 46-232 limits assumed): T3 sequence (Q9BTE7 46-232 limits assumed)

NEDD8 E1 enzyme = conditions: read-out: biochemical IC50; cited from earlier work
[7] = test system: cellular neddylation / ubiquitination; conditions: cited from earlier work
[8] = biological target: UBE2M-DCN1 interaction in 293T cells (Homo sapiens, UniProt Q96GG9); assay: Co-immunoprecipitation of DCN1 with UBE2M-FLAG-HA in cells; assay type: cell-based; conditions: treated 24 hours
[9] = test system: DCN1-independent NEDD8 ligation from AcUBE2M to CUL2CTD; assay: Pulse-chase assay, DCN1-independent neddylation; assay type: biochemical, human
[10] = even at concentrations of 100 μM

DCN1 (PONY domain) binding to N-terminally acetylated UBE2M peptide, sequence (Q96GG9 60-248 limits assumed): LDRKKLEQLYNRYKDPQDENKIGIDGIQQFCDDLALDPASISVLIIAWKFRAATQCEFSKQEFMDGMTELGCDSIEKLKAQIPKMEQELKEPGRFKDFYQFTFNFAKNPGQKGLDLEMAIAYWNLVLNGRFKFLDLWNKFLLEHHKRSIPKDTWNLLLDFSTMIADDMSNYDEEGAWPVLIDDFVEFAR
DCN1-dependent neddylation from AcUBE2M to CUL2CTD-RBX1, sequence (Q96GG9 60-248 limits assumed): as above
DCN1, sequence (Q96GG9 60-248 limits assumed): as above
C115A DCN1, C115G DCN1, sequence (Q96GG9 62-259 C115A): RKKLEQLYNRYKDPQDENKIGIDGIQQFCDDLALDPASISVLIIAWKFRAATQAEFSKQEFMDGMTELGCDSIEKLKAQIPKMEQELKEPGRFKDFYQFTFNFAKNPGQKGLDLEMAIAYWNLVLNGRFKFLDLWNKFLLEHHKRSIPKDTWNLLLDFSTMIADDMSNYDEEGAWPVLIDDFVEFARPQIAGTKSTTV
DCN2 PONY domain, sequence (Q6PH85 60-248 limits assumed): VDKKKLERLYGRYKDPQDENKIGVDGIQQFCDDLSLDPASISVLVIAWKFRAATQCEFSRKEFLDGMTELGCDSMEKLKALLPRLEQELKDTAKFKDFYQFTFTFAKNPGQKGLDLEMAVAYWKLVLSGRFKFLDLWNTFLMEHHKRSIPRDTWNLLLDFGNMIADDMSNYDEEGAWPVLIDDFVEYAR
DCN2, sequence (Q6PH85 60-248 limits assumed): as above
UBE2M-DCN1 interaction in 293T cells, sequence (Q96GG9 whole entry): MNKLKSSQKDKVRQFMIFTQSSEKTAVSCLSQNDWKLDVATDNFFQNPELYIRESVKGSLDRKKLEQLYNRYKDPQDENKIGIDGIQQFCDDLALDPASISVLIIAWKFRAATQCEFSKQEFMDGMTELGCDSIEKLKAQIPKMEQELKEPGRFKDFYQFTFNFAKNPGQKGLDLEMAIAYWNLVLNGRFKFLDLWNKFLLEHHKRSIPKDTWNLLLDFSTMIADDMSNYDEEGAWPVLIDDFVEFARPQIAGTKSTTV

Inhibition of DCN2-stimulated neddylation (DCN2): inhibited
Activity toward DCN4 (DCN4; 10 μM): no activity
Activity toward DCN3 (DCN3; 10 μM): no activity
Increased potency toward the neddylation reaction relative to NAcM-HIT [2]: 25 fold
Activity toward DCN5 (DCN5; 10 μM): no activity
Enhanced potency relative to NAcM-HIT, TR-FRET [6]: 100 fold
SMILES: CCCCN1CCC(N(Cc2ccccc2)C(=O)Nc2ccc(Cl)c(Cl)c2)CC1 [NAcM-OPT, 1-benzyl-1-(1-butylpiperidin-4-yl)-3-(3,4-dichlorophenyl)urea]
Fold decrease in UBE2M binding: CUL3 [1]: 1.9 fold
Fold decrease in UBE2M binding: CUL5 [1]: 3.2 fold
Fold decrease in UBE2M binding: DCN1 [1]: ≈ 8 fold
Levels of CRL substrates ([3]; HCC95, 10 μM): Neither NAcM-OPT treatment nor DCN1 shRNA stabilizes
Effect on levels of neddylated cullins [4]: reduced levels of neddylated cullins
Growth / colony formation of HCC95 cells in soft agar [5]: blocks growth

Covalent adduct formation with DCN2 (DCN2 PONY domain): corresponded to adducts
Activity towards DCN4 (DCN4; 50 μM): Partial activity
Activity towards DCN3 (DCN3; 50 μM): Partial activity
Covalent adduct formation with DCN1 Cys115 replaced by Ala or Gly (C115A DCN1, C115G DCN1): prevented covalent adduct formation
Potency increase by electrophile, NAcM-COV versus NAcM-COVCTRL, neddylation [2]: 2.5 fold
Inhibition of DCN5 (DCN5): lack of inhibition
Covalent adduct formation with DCN3 (DCN3 PONY domain): corresponded to adducts
Potency increase by electrophile, NAcM-COV versus NAcM-COVCTRL, TR-FRET [6]: > 30 fold
Covalent adduct formation with DCN4 (DCN4 PONY domain): Both modified and unmodified forms
Covalent adduct formation with DCN5 (DCN5 PONY domain): no evidence of covalent linkage
SMILES: C=CC(=O)Nc1ccccc1CN(C(=O)Nc1cccc(C(F)(F)F)c1)C1CCN(C(C)CCC)CC1 (stereo not drawn) [NAcM-COV, N-(2-((1-(1-(pentan-2-yl)piperidin-4-yl)-3-(3-(trifluoromethyl)phenyl)ureido)methyl)phenyl)acrylamide]
Effect on levels of neddylated cullins [4]: reduced levels of neddylated cullins; also recorded: most potent inhibition
Growth / colony formation of HCC95 cells in soft agar [5]: blocks growth
Covalent adduct formation with DCN1 (DCN1): most effective; also recorded: corresponded to adducts

SMILES: NS(=O)(=O)OC[C@@H]1C[C@@H](n2ccc3c(N[C@H]4CCc5ccccc54)ncnc32)C[C@@H]1O [MLN4924]
Levels of CRL substrates ([3]; HCC95, MLN4924 1 μM): high-level accumulation
IC50 (NEDD8 E1 enzyme): 5 nM
Effect on neddylation in cells ([4]; single dose, 1 μM): eliminates all neddylation
concentration at which cell based activity is penetrant [7]: 0.3 to 1 µM
Reduction of total cellular ubiquitination ([7]; total blockade of neddylation): 10–20%

Effect on neddylation by enzyme assays [2, 10]: no effect
Effect on DCN1-UBE2M interaction by TR-FRET [6, 10]: no effect
Co-precipitation of DCN1 with UBE2M [8]: interaction was observed
SMILES: CCCCN1CCC(N(Cc2ccccc2)C(=O)Nc2cccnc2)CC1 [NAcM-NEG, 1-benzyl-1-(1-butylpiperidin-4-yl)-3-(pyridin-3-yl)urea]
Effect on levels of neddylated cullins [4]: no effect

SMILES: O=C(Nc1cccc(C(F)(F)F)c1)NC1CCN(Cc2ccccc2)CC1 [NAcM-HIT, 1-(1-benzylpiperidin-4-yl)-3-(3-(trifluoromethyl)phenyl)urea]
Inhibition of DCN1-independent NEDD8 ligation [9]: did not inhibit

SMILES: CCCC(C)N1CCC(N(Cc2ccccc2NC(=O)CC)C(=O)Nc2cccc(C(F)(F)F)c2)CC1 (stereo not drawn) [NAcM-COVCTRL, N-(2-((1-(1-(pentan-2-yl)piperidin-4-yl)-3-(3-(trifluoromethyl)phenyl)ureido)methyl)phenyl)propionamide]
Effect on levels of neddylated cullins [4]: relatively reduced potency
